In PubChem BioAssay (NCI):
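A five-concentration, 48-hour dose response in 96-well plates underlies each endpoint, interpolated linearly between surrounding concentrations. The concentration for 50% growth inhibition is given as GI50. TGI is the concentration that stops growth completely.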

What was measured:
Assay in all cases: DTP human tumour cell line panel, 48 h
DU-145 prostate = system: DU-145 prostate
HCT-15 colon = system: HCT-15 colon
SR leukemia = system: SR leukemia
OVCAR-8 ovarian = system: OVCAR-8 ovarian
HS 578T breast = system: HS 578T breast
NCI-H226 lung = system: NCI-H226 lung
NCI/ADR-RES ovarian = system: NCI/ADR-RES ovarian
RXF 393 renal = system: RXF 393 renal
A498 renal = system: A498 renal
EKVX NSCLC = system: EKVX NSCLC
SF-295 CNS = system: SF-295 CNS
PC-3 prostate = system: PC-3 prostate
HOP-62 NSCLC = system: HOP-62 NSCLC
MDA-MB-468 breast = system: MDA-MB-468 breast
HL-60(TB) leukemia = system: HL-60(TB) leukemia
UACC-257 melanoma = system: UACC-257 melanoma
SNB-19 CNS = system: SNB-19 CNS
NCI-H23 lung = system: NCI-H23 lung
KM12 colon = system: KM12 colon
A549 NSCLC = system: A549 NSCLC
MALME-3M melanoma = system: MALME-3M melanoma
OVCAR-5 ovarian = system: OVCAR-5 ovarian
RPMI-8226 leukemia = system: RPMI-8226 leukemia
MOLT-4 leukemia = system: MOLT-4 leukemia
786-0 renal = system: 786-0 renal
SNB-75 CNS = system: SNB-75 CNS
SF-268 CNS = system: SF-268 CNS
UACC-62 melanoma = system: UACC-62 melanoma
BT-549 breast = system: BT-549 breast
TK-10 renal = system: TK-10 renal
IGROV1 ovarian = system: IGROV1 ovarian
K-562 leukemia = system: K-562 leukemia
SK-MEL-5 melanoma = system: SK-MEL-5 melanoma
CAKI-1 renal = system: CAKI-1 renal
UO-31 renal = system: UO-31 renal
MDA-MB-435 = system: MDA-MB-435
COLO 205 colon = system: COLO 205 colon
SN12C renal = system: SN12C renal
MDA-MB-231 breast = system: MDA-MB-231 breast
OVCAR-3 ovarian = system: OVCAR-3 ovarian
SW-620 colon = system: SW-620 colon
T-47D breast = system: T-47D breast
LOX IMVI melanoma = system: LOX IMVI melanoma
U251 CNS = system: U251 CNS
HT29 colon = system: HT29 colon
HCC-2998 colon = system: HCC-2998 colon
MCF7 breast = system: MCF7 breast
ACHN renal = system: ACHN renal
SK-MEL-2 melanoma = system: SK-MEL-2 melanoma
SK-MEL-28 melanoma = system: SK-MEL-28 melanoma
HCT-116 colon = system: HCT-116 colon
SK-OV-3 ovarian = system: SK-OV-3 ovarian
NCI-H522 lung = system: NCI-H522 lung
OVCAR-4 ovarian = system: OVCAR-4 ovarian
CCRF-CEM leukemia = system: CCRF-CEM leukemia
M14 melanoma = system: M14 melanoma
HOP-92 NSCLC = system: HOP-92 NSCLC
SF-539 CNS = system: SF-539 CNS

O=C(NN1C(=O)/C(=C/C=C/c2ccc([N+](=O)[O-])o2)SC1=S)c1ccccc1O showed a GI50 (DU-145 prostate) of 1590 nM, a TGI (DU-145 prostate) of 3020 nM and a GI50 (HCT-15 colon) of 149 nM. For the same compound, the TGI (HCT-15 colon) was 340 nM, the GI50 (SR leukemia) was 221 nM and the TGI (SR leukemia) was greater than 100000 nM. It also gave a GI50 (OVCAR-8 ovarian) of 366 nM, a TGI (OVCAR-8 ovarian) of 1600 nM and a GI50 (HS 578T breast) of 2100 nM. For the same compound, the TGI (HS 578T breast) was 7470 nM, the GI50 (NCI-H226 lung) was 1110 nM and the TGI (NCI-H226 lung) was 2690 nM. It also gave a GI50 (NCI/ADR-RES ovarian) of 1780 nM, a TGI (NCI/ADR-RES ovarian) of 5750 nM and a GI50 (RXF 393 renal) of 1420 nM. It also gave a TGI (RXF 393 renal) of 2760 nM, a GI50 (A498 renal) of 18300 nM and a TGI (A498 renal) of 32600 nM. It also gave a GI50 (EKVX NSCLC) of 1370 nM, a TGI (EKVX NSCLC) of 2750 nM and a GI50 (SF-295 CNS) of 1790 nM. For the same compound, the TGI (SF-295 CNS) was 3420 nM, the GI50 (PC-3 prostate) was 1920 nM and the TGI (PC-3 prostate) was 4940 nM. It also gave a GI50 (HOP-62 NSCLC) of 1620 nM, a TGI (HOP-62 NSCLC) of 3110 nM and a GI50 (MDA-MB-468 breast) of 1400 nM. The TGI (MDA-MB-468 breast) was 3070 nM, the GI50 (HL-60(TB) leukemia) was 1730 nM and the TGI (HL-60(TB) leukemia) was 9470 nM. The GI50 (UACC-257 melanoma) was 1720 nM, the TGI (UACC-257 melanoma) was 3600 nM and the GI50 (SNB-19 CNS) was 1760 nM. It also gave a TGI (SNB-19 CNS) of 3340 nM, a GI50 (NCI-H23 lung) of 846 nM and a TGI (NCI-H23 lung) of 2170 nM. For the same compound, the GI50 (KM12 colon) was 1620 nM, the TGI (KM12 colon) was 3770 nM and the GI50 (A549 NSCLC) was 2980 nM. The TGI (A549 NSCLC) was 10500 nM, the GI50 (MALME-3M melanoma) was 223 nM and the TGI (MALME-3M melanoma) was 507 nM. For the same compound, the GI50 (OVCAR-5 ovarian) was 1840 nM, the TGI (OVCAR-5 ovarian) was 3300 nM and the GI50 (RPMI-8226 leukemia) was 379 nM. It also gave a TGI (RPMI-8226 leukemia) of 2530 nM, a GI50 (MOLT-4 leukemia) of 390 nM and a TGI (MOLT-4 leukemia) of 7560 nM. The GI50 (786-0 renal) was 1110 nM, the TGI (786-0 renal) was 2330 nM and the GI50 (SNB-75 CNS) was 1290 nM. It also gave a TGI (SNB-75 CNS) of 5840 nM, a GI50 (SF-268 CNS) of 1800 nM and a TGI (SF-268 CNS) of 4200 nM. The GI50 (UACC-62 melanoma) was 675 nM, the TGI (UACC-62 melanoma) was 1900 nM and the GI50 (BT-549 breast) was 673 nM. It also gave a TGI (BT-549 breast) of 1800 nM, a GI50 (TK-10 renal) of 1960 nM and a TGI (TK-10 renal) of 4190 nM. For the same compound, the GI50 (IGROV1 ovarian) was 1230 nM, the TGI (IGROV1 ovarian) was 2480 nM and the GI50 (K-562 leukemia) was 276 nM. For the same compound, the TGI (K-562 leukemia) was greater than 33300 nM, the GI50 (SK-MEL-5 melanoma) was 771 nM and the TGI (SK-MEL-5 melanoma) was 2030 nM. It also gave a GI50 (CAKI-1 renal) of 1330 nM, a TGI (CAKI-1 renal) of 2670 nM and a GI50 (UO-31 renal) of 1240 nM. For the same compound, the TGI (UO-31 renal) was 2490 nM, the GI50 (MDA-MB-435) was 371 nM and the TGI (MDA-MB-435) was 1380 nM. The GI50 (COLO 205 colon) was 957 nM, the TGI (COLO 205 colon) was 2280 nM and the GI50 (SN12C renal) was 237 nM. For the same compound, the TGI (SN12C renal) was 714 nM, the GI50 (MDA-MB-231 breast) was 257 nM and the TGI (MDA-MB-231 breast) was 613 nM. For the same compound, the GI50 (OVCAR-3 ovarian) was 1230 nM, the TGI (OVCAR-3 ovarian) was 2540 nM and the GI50 (SW-620 colon) was 196 nM. It also gave a TGI (SW-620 colon) of 426 nM, a GI50 (T-47D breast) of 1630 nM and a TGI (T-47D breast) of 3230 nM. The GI50 (LOX IMVI melanoma) was 194 nM, the TGI (LOX IMVI melanoma) was 402 nM and the GI50 (U251 CNS) was 1270 nM. It also gave a TGI (U251 CNS) of 2620 nM, a GI50 (HT29 colon) of 1000 nM and a TGI (HT29 colon) of 2780 nM. It also gave a GI50 (HCC-2998 colon) of 1370 nM, a TGI (HCC-2998 colon) of 2700 nM and a GI50 (MCF7 breast) of 432 nM. The TGI (MCF7 breast) was 2020 nM, the GI50 (ACHN renal) was 1460 nM and the TGI (ACHN renal) was 2780 nM. For the same compound, the GI50 (SK-MEL-2 melanoma) was 663 nM, the TGI (SK-MEL-2 melanoma) was 2060 nM and the GI50 (SK-MEL-28 melanoma) was 1680 nM. The TGI (SK-MEL-28 melanoma) was 3130 nM, the GI50 (HCT-116 colon) was 197 nM and the TGI (HCT-116 colon) was 395 nM. The GI50 (SK-OV-3 ovarian) was 2260 nM, the TGI (SK-OV-3 ovarian) was 5280 nM and the GI50 (NCI-H522 lung) was 262 nM. The TGI (NCI-H522 lung) was 749 nM, the GI50 (OVCAR-4 ovarian) was 1720 nM and the TGI (OVCAR-4 ovarian) was 3720 nM. It also gave a GI50 (CCRF-CEM leukemia) of 318 nM, a TGI (CCRF-CEM leukemia) of 1490 nM and a GI50 (M14 melanoma) of 298 nM. For the same compound, the TGI (M14 melanoma) was 873 nM, the GI50 (HOP-92 NSCLC) was 1680 nM and the TGI (HOP-92 NSCLC) was 4130 nM. The GI50 (SF-539 CNS) was 1310 nM and the TGI (SF-539 CNS) was 2670 nM.
